# Measurements published in PubChem BioAssay (NCI).
# Where “and” joins values, the source holds several entries; their conditions need not be identical. Identical values can stand only once.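 All cell lines were grown in 96-well plates and treated with compound for 48 hours. GI50: concentration for 50% inhibition of growth. TGI: total growth inhibition.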
# What was measured:
# Assay in all cases: NCI tumour cell line growth inhibition, 48 h
# [1] = tested on: SF-268 CNS
# [2] = tested on: SK-MEL-5 melanoma
# [3] = tested on: HS 578T breast
# [4] = tested on: RPMI-8226 leukemia
# [5] = tested on: BT-549 breast
# [6] = tested on: NCI/ADR-RES ovarian
# [7] = tested on: DU-145 prostate
# [8] = tested on: MALME-3M melanoma
Compound,TGI [1],TGI [2],GI50 [3],TGI [3],GI50 [4],TGI [4],GI50 [5],TGI [5],GI50 [1],GI50 [6],TGI [6],GI50 [7],TGI [7],GI50 [2],TGI [8],GI50 [8]
COc1ccc2nc3c(C(=O)NCCN(C)C)cccc3nc2c1,48.5 µM,15.7 µM,,,,,,,,,,,,,,
O=S(=O)(NC1=NCCN1C(=S)SN1CCn2c1nsc2=S)c1cccc(Cl)c1,46.7 µM,31.9 µM,39.3 µM,> 100 µM,5.05 µM,> 100 µM,22.3 µM,68.4 µM,20.2 µM,21.4 µM,69.3 µM,22.2 µM,64.6 µM,16.7 µM,,
COC1(OC)CC2OC1C1N=NN(C(=O)OC(C)(C)C)C21 (stereo unspecified),> 100 µM,> 100 µM,,,,> 100 µM,,,,,,,,,> 100 µM,
Cc1cc(N(CCC#N)CCC#N)ccc1/C=C1\N=C(c2cc([N+](=O)[O-])ccc2Cl)N(c2cccc(Cl)c2)C1=O,> 100 µM,> 100 µM,,,,> 100 µM,,,,,,,,,> 100 µM,
O=C(CCc1cc(-c2ccccc2)nc(=S)[nH]1)N(Cc1ccccc1)Cc1ccccc1,> 100 µM,,,,,> 100 µM,,,,,,,,,> 100 µM,
C=C(C[C@](O)(C(=O)/C=C/c1ccc(Cl)cc1)C(=O)OC)c1ccccc1,8.13 µM,14.6 µM,4.11 µM,34.6 µM,,,2.86 µM,10.7 µM,2.55 µM,3.11 µM,17.1 µM,3.03 µM,10.7 µM,4.11 µM,26.5 µM,12.4 µM
O=[N+]([O-])c1ccc(C=NC2CCCCC2)cc1,> 100 µM,> 100 µM,,,,,,,,,,,,,> 100 µM,
NC12CC3CC(C1)CC(C(=O)O)(C3)C2,> 100 µM,> 100 µM,,,,> 100 µM,,,,,,,,,,
O=C(CC1C(=O)NN(c2ccc(Br)cc2)C1=O)c1cc(O)ccc1O (stereo unspecified),> 50 µM,> 50 µM,26.2 µM,> 50 µM,16.5 µM,> 50 µM,13.9 µM,> 50 µM,29 µM,19.6 µM,> 50 µM,21.2 µM,> 50 µM,18.6 µM,,
COc1ccc2c(c1)[n+](=O)c(C(=O)C/C(=N/OCCCc1ccccc1)C(=O)NC13CC4CC(CC(C4)C1)C3)c(C)n2[O-],> 100 µM,> 100 µM,,,,> 100 µM,,,,,,,,,> 100 µM,
O=C(O)CCSC(=O)Nc1ccc([N+](=O)[O-])cc1,> 100 µM,,,,,> 100 µM,,,,,,,,,,
NC(=O)COC(=O)c1c(Cl)nc2sccn12,> 100 µM,> 100 µM,,,,> 66.4 µM,,,,,,,,,> 100 µM,
N#C/C(=C\c1ccc2ccccc2c1)c1ccccc1,> 100 µM,66.5 µM,,,,> 100 µM,,,,,,,,,,
NC(=O)NS(=O)(=O)c1ccc(N2N=C(C(F)(F)F)CC2c2cc(C(F)(F)F)cc(C(F)(F)F)c2)cc1 (stereo unspecified),12.3 µM,12 µM,,,1.38 µM,3.74 µM,4.28 µM,16.5 µM,2.96 µM,6.95 µM,21.6 µM,3.54 µM,15.1 µM,3.07 µM,39.9 µM,13.9 µM
CCOCC(=O)N[C@H]1CCc2cc(OC)c(OC)c(OC)c2-c2ccc(OC)c(=O)cc21,> 100 µM,0.36 µM,,> 100 µM,,> 100 µM,,,,,,,0.107 µM,,> 100 µM,
CCCn1c(=S)sc2c1nc(C)n1c(Nc3ccccc3)nnc21,,11.2 µM,3.55 µM,36 µM,4.22 µM,39.3 µM,2.99 µM,12 µM,,3.53 µM,41.9 µM,,,3.31 µM,> 100 µM,2.94 µM
O=C1c2ccccc2C(=O)N1CCc1ncc[nH]1,> 100 µM,> 100 µM,,> 100 µM,,> 100 µM,,,,,> 100 µM,,> 100 µM,,,
CC(=O)OCC1OC(NC(=S)N/N=C2\CC(c3ccccc3)Oc3ccccc32)C(OC(C)=O)C(OC(C)=O)C1OC(C)=O (stereo unspecified),> 100 µM,> 100 µM,,,,> 100 µM,,,,,,,,,> 100 µM,
CC(SC(=S)N1CCOCC1)c1cc2oc(=O)n(C)c2cc1Cl (stereo unspecified),> 100 µM,> 100 µM,,,,> 100 µM,,,,,,,,,> 100 µM,
C/C(O)=C(\N=O)C(=O)Nc1ccc(Cl)cc1Cl,> 100 µM,> 100 µM,,,,> 100 µM,,,,,,,,,> 100 µM,
COc1ccc(NC(=O)CC(=O)N/N=C/c2ccc(N(CCC#N)S(C)(=O)=O)cc2)cc1,> 100 µM,> 100 µM,,,,> 100 µM,,,,,,,,,> 100 µM,
CC(C)(CO)N1CCN(C(=S)Nc2ccccc2)CC1,> 100 µM,> 100 µM,,> 100 µM,,> 100 µM,,> 100 µM,,,> 100 µM,,,,> 100 µM,
Cc1ccc(-c2nc3nc(-c4ccccc4)nc(N4CCCNCC4)c3o2)cc1,3.63 µM,,1.83 µM,4.02 µM,,,1.63 µM,3.19 µM,1.74 µM,2.17 µM,4.71 µM,1.82 µM,3.3 µM,,3.38 µM,1.85 µM
CCCCCCCC(=O)OCC/C=C/C1OC1C1OC(=O)/C=C\C=C\c2nc(oc2C)/C=C(/C)CCC2OC2C1OC(=O)NC(C)=O (stereo unspecified),1.74 µM,0.0688 µM,0.0776 µM,0.221 µM,0.0241 µM,1.04 µM,0.0466 µM,0.168 µM,0.0401 µM,0.165 µM,1.88 µM,0.0526 µM,1.37 µM,0.0248 µM,,
Cc1c(C(=O)C/C(=N/NC(=O)C[N+](C)(C)C)C(=O)Nc2ccc(Cl)cc2)[n+](=O)c2ccccc2n1O,> 100 µM,> 100 µM,,,,> 100 µM,,,,,,,,,> 100 µM,
O=C(O)C(CS)Nc1c2ccccc2nc2ccccc12 (stereo unspecified),> 100 µM,,,,,> 100 µM,,,,,,,,,> 100 µM,
CC(=O)O[C@H]1C(=O)[C@@]2(C)C(C(OC(=O)c3ccccc3)[C@]3(O)CC(OC(=O)[C@H](OC(=O)CCC(=O)O)C(NC(=O)c4ccccc4)c4ccccc4)C(C)=C1C3(C)C)C1(OC(C)=O)COC1C[C@@H]2O (stereo partly specified),> 100 µM,13.9 µM and 18 µM,,3.1 µM and 1.57 µM,,< 0.01 µM,,,,8.73 µM and 17.7 µM,61.9 µM and > 72.3 µM,< 0.01 µM and 0.0319 µM,0.0715 µM and 0.193 µM,,> 100 µM,< 0.01 µM and 0.0659 µM
CCCC1N2CCCCC2[C@@H]2c3[nH]c4ccccc4c3CCN12 (stereo partly specified),> 100 µM,> 100 µM,,,,> 100 µM,,,,,,,,,> 100 µM,
O=C(CC1(O)C(=O)Nc2c(Cl)ccc(Cl)c21)c1ccc(F)cc1 (stereo unspecified),> 100 µM,38.6 µM,,,,47.9 µM,,,,,,,,,> 100 µM,
